Activity calls are given as the source filed them. The rule behind the calls is not given here.
What was measured:
[1] = biological target: Replicase polyprotein 1ab (Severe acute respiratory syndrome coronavirus 2, UniProt P0DTD1); experiment: Inhibition of recombinant SARS-CoV-2 PLpro using TLKGGI-AMC as substrate assessed as assessed as inhibition constant ny measuring fluorescence signal measured after 15 mins
[2] = biological target: Replicase polyprotein 1ab (Severe acute respiratory syndrome coronavirus 2) (UniProt P0DTD1); experiment: Inhibition of recombinant SARS-CoV-2 PLpro using TLKGGI-AMC as substrate assessed as assessed as inhibition constant ny measuring fluorescence signal at 10 uM measured after 15 mins relative to control
[3] = tested on: Severe acute respiratory syndrome coronavirus 2; experiment: Binding affinity to SARS-CoV-2 MPro assessed as thermal stability by measuring melting temperature of half of the proteins unfolded by differential scanning fluorimetry (DSF) (reference value: 52.46 degC)
[4] = Cytotoxicity against human HEK293 cells assessed as cell viability measured after 48 hrs by MTT assay; assay type: toxicity, cell-based
[5] = biological target: Chymotrypsin (Homo sapiens) (UniProt Q99895+P17538+P40313+Q6GPI1); experiment: Inhibition of Chymotrypsin (unknown origin) assessed as BSA digestion; assay type: protein assay
[6] = Cytotoxicity against African green monkey Vero E6 cells assessed as cell viability at 100 uM measured after 48 hrs by MTT assay relative to control; assay type: toxicity, cell-based, Vero C1008; conditions: chlorocebus sabaeus, read-out: Activity
[7] = biological target: Replicase polyprotein 1ab (Severe acute respiratory syndrome coronavirus 2) (UniProt P0DTD1); experiment: Binding affinity to SARS-CoV-2 PLpro assessed as thermal stability by measuring melting temperature of half of the proteins unfolded by differential scanning fluorimetry (DSF) (reference value: 45.79 degC)
[8] = biological target: Replicase polyprotein 1ab (Severe acute respiratory syndrome coronavirus 2) (UniProt P0DTD1); experiment: Non-covalent inhibition of SARS-CoV-2 PLpro by Lineweaver-Burk Plot analysis
[9] = tested on: Severe acute respiratory syndrome coronavirus 2; experiment: Non-covalent inhibition of SARS-CoV-2 MPro by Lineweaver-Burk Plot analysis
SARS-CoV-2 [10] = experiment: Anti-viral activity against SARS-CoV-2 Calu-3 by direct yield reduction assay (DYRA); assay type: functional, organism-based; conditions: Severe acute respiratory syndrome coronavirus 2, Calu-3, Calu-3
SARS-CoV-2 [11] = experiment: Antiviral activity against SARS-CoV-2 infected in African green monkey Vero E6 cells assessed as viral load reduction at 4 uM by measuring viral RNA measured up to 72 hrs by RT-PCR analysis relative to control; assay type: functional, Severe acute respiratory syndrome coronavirus 2, Vero C1008; set-up: scale not given: the % may be the effect or the level left
SARS-CoV-2 [12] = experiment: Antiviral activity against SARS-CoV-2 infected in African green monkey Vero E6 cells assessed as viral reduction by measuring viral RNA measured up to 72 hrs by RT-PCR analysis; assay type: functional, organism-based; conditions: Severe acute respiratory syndrome coronavirus 2, SARS-CoV-2, Vero C1008, 72 h
SARS-CoV-2 [13] = experiment: Anti-viral activity against SARS-CoV-2 BavPat1 infected in Vero E6 cells assessed as inhibition of viral RNA replication; assay type: functional, organism-based; conditions: Severe acute respiratory syndrome coronavirus 2, BavPat1, Vero C1008
[14] = biological target: Replicase polyprotein 1ab (Severe acute respiratory syndrome coronavirus 2) (UniProt P0DTD1); experiment: Reversible inhibition of SARS-CoV-2 PLpro assessed as enzyme activity by dialysis; set-up: scale not given: the % may be the effect or the level left
[15] = Acute toxicity in rat assessed as toxicity at 175 to 2000 mg/kg, po measured for 14 days; assay type: organism-based; conditions: in vivo, dose 175-2000 mg/kg, time 14 day
[16] = biological target: Replicase polyprotein 1ab (Severe acute respiratory syndrome coronavirus 2) (UniProt P0DTD1); experiment: Covalent binding affinity to SARS-CoV-2 PLpro assessed as change in molecular weight by Mass spectrometry
[17] = biological target: Replicase polyprotein 1ab (Severe acute respiratory syndrome coronavirus 2) (UniProt P0DTD1); experiment: Non-covalent binding affinity to SARS-CoV-2 PLpro assessed change in molecular weight by Mass spectrometry
[18] = tested on: Severe acute respiratory syndrome coronavirus 2; experiment: Reversible inhibition of SARS-CoV-2 MPro assessed as enzyme activity by dialysis; set-up: scale not given: the % may be the effect or the level left
[19] = Acute toxicity in rat assessed as change in body weight at 175 to 2000 mg/kg, po measured for 14 days; assay type: organism-based; conditions: in vivo, 336 h, dose 175-2000 mg/kg, time 14 day
[20] = Acute toxicity in rat assessed as morphological changes in liver in portal, periportal, and centrilobular regions at 175 to 2000 mg/kg, po measured for 14 days by Hand E staining based analysis; assay type: organism-based; conditions: in vivo, 336 h, dose 175-2000 mg/kg, time 14 day
[21] = tested on: Severe acute respiratory syndrome coronavirus 2; experiment: Non-covalent binding affinity to SARS-CoV-2 MPro assessed change in molecular weight by Mass spectrometry
[22] = tested on: Severe acute respiratory syndrome coronavirus 2; experiment: Covalent binding affinity to SARS-CoV-2 MPro assessed as change in molecular weight by Mass spectrometry

SMILES: Cc1ccc(C(=O)NNc2nc(-c3ccc(C)cc3)cs2)cc1
- Ki [1]: Not_active
- inhibition [2]: < 50%

SMILES: CCOC(=O)c1sc(NNC(=O)c2ccccc2)nc1C
- Ki [1]: Not_active
- inhibition [2]: < 50%

SMILES: O=C(NNc1nc(-c2ccc(Br)cc2)cs1)c1ccc(F)cc1
- Tm [3]: 51.1 °C
- IC50 at 48 h [4]: 10500 nM
- inhibition [5]: inactive
- viability at 48 h, 100 µM [6]: 91.8%
- Ki ([1]; read-out: Ki): 150 nM
- Tm [7]: 45.9 °C
- Activity [8]: Active
- Activity [9]: Active

SMILES: Cc1ccc(-c2csc(NNC(=O)c3ccc(Br)cc3)n2)cc1
- Ki [1]: Not_active
- inhibition [2]: < 50%

SMILES: CCOC(=O)c1sc(NNC(=O)c2cccc(Br)c2)nc1C
- Ki [1]: Not_active
- inhibition [2]: < 50%

SMILES: Cc1nc(NC(=O)C(C)(C)C)sc1-c1cnc(N(CC(C)(C)O)C2CCCCC2)s1
- IC50 (SARS-CoV-2 [10]): 1570 nM

SMILES: CCOC(=O)c1sc(NNC(=O)c2ccc3ccccc3c2)nc1C
- Ki ([1]; read-out: Ki): 660 nM

SMILES: Cc1ccc(-c2csc(NNC(=O)c3ccc([N+](=O)[O-])cc3)n2)cc1
- Tm [3]: 52.6 °C
- IC50 at 48 h [4]: 6690 nM
- Activity (SARS-CoV-2 [11]): >80%
- EC50 (SARS-CoV-2 [12]): 126 nM
- inhibition [5]: inactive
- viability at 48 h, 100 µM [6]: 82.3%
- Ki ([1]; read-out: Ki): 1250 nM
- Tm [7]: 41.4 °C

SMILES: CCOC(=O)c1sc(NNC(=O)c2cccs2)nc1C
- Tm [3]: 49.8 °C
- IC50 at 48 h [4]: 45800 nM
- Activity (SARS-CoV-2 [11]): >70%
- EC50 (SARS-CoV-2 [12]): 118 nM
- inhibition [5]: inactive
- viability at 48 h, 100 µM [6]: 87.9%
- Ki ([1]; read-out: Ki): 230 nM
- Tm [7]: 41.1 °C
- Activity [8]: Active
- Activity [9]: Active

SMILES: CCOC(=O)c1sc(NNC(=O)c2ccc(Br)cc2)nc1C
- Tm [3]: 49.7 °C
- IC50 at 48 h [4]: 219000 nM
- Activity (SARS-CoV-2 [11]): >80%
- EC50 (SARS-CoV-2 [12]): 116 nM
- inhibition [5]: inactive
- viability at 48 h, 100 µM [6]: 86.9%
- Ki ([1]; read-out: Ki): 500 nM
- Tm [7]: 41.5 °C
- Activity [8]: Active
- Activity [9]: Active

SMILES: O=C(NNc1nc(-c2ccc(Br)cc2)cs1)c1ccc([N+](=O)[O-])cc1
- inhibition [5]: inactive
- viability at 48 h, 100 µM [6]: 99.5%
- Ki ([1]; read-out: Ki): 4220 nM

SMILES: O=C(NNc1ncc(-c2ccc(Cl)cc2)s1)c1cccc(Cl)c1
- Ki ([1]; read-out: Ki): 4230 nM

SMILES: O=C(O)c1ccccc1/C=N/Nc1ncc(-c2ccccc2Cl)s1
- EC50 (SARS-CoV-2 [13]): 1590 nM

SMILES: O=C(NNc1nc(-c2ccc(Br)cc2)cs1)c1ccccc1
- Ki [1]: Not_active
- inhibition [2]: < 50%

SMILES: CCOC(=O)c1sc(NNC(=O)c2ccc([N+](=O)[O-])cc2)nc1C
- Tm [3]: 51 °C
- IC50 at 48 h [4]: 25900 nM
- Activity [14]: > 90%
- Activity (SARS-CoV-2 [11]): >80%
- EC50 (SARS-CoV-2 [12]): 97 nM
- inhibition [5]: inactive
- LD50 at 336 h [15]: > 2000 mg/kg
- Activity [16]: inactive
- Activity [17]: Active
- viability at 48 h, 100 µM [6]: 89.2%
- Ki ([1]; read-out: Ki): 450 nM
- Tm [7]: 41.5 °C
- Activity [8]: Active
- Activity [9]: Active
- Activity [18]: > 90%
- Activity [19]: Non-toxic
- Activity [20]: Non-toxic

SMILES: CCOC(=O)c1sc(NNC(=O)c2cccc(Cl)c2)nc1C
- Ki [1]: Not_active
- inhibition [2]: < 50%

SMILES: O=c1c2ccccc2[se]n1-c1ccccc1 [EBSELEN]
- Tm [3]: 52.4 °C
- inhibition [5]: inactive
- Tm [7]: 45.4 °C
- Activity [21]: inactive
- Activity [22]: Active

SMILES: Clc1nc2ccccc2cc1/C=N/Nc1nc(-c2ccccc2)cs1
- Ki [1]: Not_active
- inhibition [2]: < 50%

SMILES: CC(=O)Oc1ccccc1C(=O)Nc1ncc([N+](=O)[O-])s1 [NITAZOXANIDE]
- EC50 (SARS-CoV-2 [13]): 7480 nM

SMILES: Cc1ccc(-c2csc(NNC(=O)c3ccc(Cl)cc3)n2)cc1
- Ki [1]: Not_active
- inhibition [2]: < 50%

SMILES: COC(=O)c1sc(NNC(=O)c2ccc([N+](=O)[O-])cc2)nc1C
- Ki [1]: Not_active
- inhibition [2]: < 50%
